# Experimental data: patent US6346620B1, “Methods for preparation of 2-(4-(4-(4,5-dichloro-2-methylimidazol-1-yl)butyl)-1-piperazinyl)-5-fluoropyrimidine and salts thereof” (Laboratories del Dr. Esteve S.A., priority 1997, dated 2002)
# What was measured:
# [1] = system: nausea induced by copper sulfate; experiment: Antiemetic activity: nausea/vomiting induced by copper sulfate in ferrets; assay type: in vivo; conditions: ferret; for Number of episodes of nausea/vomiting: copper sulfate 100 mg/kg intragastric, 30 min observation
# Experimental: (§1) The compounds obtained in the invention are studied with regard to their effects on nausea in ferrets according to a method described by Costall et al. (Neuropharmacology, 1986, 25, 959-961). Ferrets of both sexes (0.7-1.4 kg) are individually housed at 21±1° C. and fed normally. The compound of the example or a vehicle is subsequently administered to them subcutaneously as pretreatment 15 minutes before the administration of copper sulfate (CuSO4.5H2O; 100 mg/kg by the intragastric route) or cisplatin (10 mg/kg i.v. by means of a permanent jugular cannula). The animals are observed at the beginning of vomiting and then for 30 minutes (copper sulfate) or 240 minutes (cisplatin). Vomiting is characterized by rhythmic abdominal contractions, either associated with the expulsion of solid or liquid matter (vomit) or not associated with the passage of matter via the mouth (nausea). The number of episodes and nausea or vomiting are recorded.
# [2] = system: nausea induced by cisplatin; experiment: Antiemetic activity: nausea/vomiting induced by cisplatin in ferrets; assay type: in vivo; conditions: ferret; for Number of episodes of nausea/vomiting: cisplatin 10 mg/kg i.v., 240 min observation
# Experimental: as §1
# [3] = system: nausea caused by the movement (travel sickness); experiment: Travel sickness in the shrew (Suncus murinus); assay type: in vivo; conditions: for Number of episodes of nausea/vomiting: motion 1 hertz 4 cm for 20 min
# Text: The compound of Example 3 is studied with regard to its effect on travel sickness, (vertigo) induced in, Suncus murinus according to the method described by N. Matsuki et al. (“Mechanisms and Control of Emesis”, John Libbey Emotex, 1992, 233, 323-329). Males of the species Suncus murinus weighing 58-72 grams are housed in groups of 3 and are allowed free access to solid food and to water. One hour before the test, they are presented with cat food in their housing cage. At the beginning of the test, the animals receive the treatment with the test product by the i.p. route. After 30 minutes, they are placed individually in the test boxes (15×15×10 cm). The boxes are connected to a motor which displaces them over several wheels forward and backward with a frequency which induces nausea in them (travel sickness). This frequency is 1 hertz with an amplitude of displacement of 4 cm. The animals are left in the test boxes for 30 minutes, in order for them to become used to their surroundings, and then the active movement of the cages is begun for 20 minutes, in order to determine the presence or the absence of nausea (without passage of matter from the digestive tract) and of vomiting (with passage of matter from the digestive tract).
# 5HT1A serotonin receptor = target: T1, 5HT1A serotonin receptor (Rattus norvegicus, UniProt P19327); experiment: Binding to the 5HT1A serotonin receptor (rat hippocampus homogenate, [3H]-8-HO-DPAT); conditions: 15 minutes at 37° C., read-out: Ki (inhibition constant)
# T1 construct: A rat hippocampus homogenate is used; from tissue; host or cells: rat hippocampus homogenate
# T1 sequence (P19327 1-422): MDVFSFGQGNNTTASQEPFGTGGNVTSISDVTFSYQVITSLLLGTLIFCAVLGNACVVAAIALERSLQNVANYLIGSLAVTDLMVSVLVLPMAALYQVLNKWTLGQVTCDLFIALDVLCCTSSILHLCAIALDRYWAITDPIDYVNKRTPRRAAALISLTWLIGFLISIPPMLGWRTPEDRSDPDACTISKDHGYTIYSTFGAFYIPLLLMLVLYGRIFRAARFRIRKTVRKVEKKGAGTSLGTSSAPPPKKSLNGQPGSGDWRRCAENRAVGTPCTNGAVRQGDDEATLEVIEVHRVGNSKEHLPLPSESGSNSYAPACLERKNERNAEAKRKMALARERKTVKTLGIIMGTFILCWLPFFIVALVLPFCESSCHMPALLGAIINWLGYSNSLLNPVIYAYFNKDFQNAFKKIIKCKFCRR
# Experimental: A rat hippocampus homogenate is used, a modification of the method of S. J. Peroutka (Neurochem., 1986, 47, 529) being followed. [^3H]-8-HO-DPAT is used as radioligand and serotonin is used to measure the nonspecific binding. The incubation time is 15 minutes at a temperature of 37° C. The radioligand bonded to the protein is separated by filtration through glass fiber filters and the radioactivity retained on the filter is determined by liquid scintillation. The inhibitIon constant (Ki, nM) is calculated by nonlinear regression analysis using the EBDA/LIGAND program (Munson and Rodbard, Analytical Biochemistry, 1980, 107, 220).
# [4] = system: conditioned avoidance response; experiment: Test of conditioned avoidance response (C.A.R.); assay type: in vivo; conditions: Rattus norvegicus, po; male Wistar rats, p.o., 45 minutes before the study; read-out: ED50 (suppression of conditioned avoidance response)
# Experimental: In this test, use is made of male Wistar rats weighing 200 g trained to leap a barrier in a Letica shuttle box (references LI 910 and LI 2700) during the 30 seconds which follow their introduction into the box. Products having an anxiolytic or tranquilizing activity suppress the conditioned avoidance response. Training: first day, 11 tests at intervals of 3 minutes. Electric shock in the paws at 30 seconds (5 mA, 0.1 s, 10 s). Second and third days: two daily tests, only with the selected rats {some of the grades of the first day (except the first test) >14}. Day of the test: groups formed by the selected rats. Oral administration of the product or vehicle 45 minutes before the beginning of the study.
# gastric acid secretion = experiment: Inhibitory activity with regard to gastric acid secretion (Shay procedure); assay type: in vivo; conditions: Rattus norvegicus, intraduodenal; male Wistar rats, pylorus ligation, i.d., 2 hours; read-out: ED50 (inhibition of gastric acid secretion)
# Experimental: This activity is determined by means of the Shay procedure (H. Shay et al., Gastroenterology, 1945, 5, 43; Visscher et al., J. Pharmac. Exp. Ther., 1954, 110, 188).
# Male Wistar rats weighing from 200 to 250 g are used in this test, which rats are deprived of food up to the day preceding the test, with free access to water. Batches of 4 animals each are used, at least.
# The rats are anesthetized with ethyl ether, a laparotomy is performed on them and their pylori are tied, and then an abdominal incision is made. The products are administered intraduodenally (i.d.) before suturing the abdominal incision. The dose administered in the first test is 40 mg/kg and then the median effective dose (ED50) is determined. The vehicle used is gum arabic at 5% w/v in doubly-distilled water.
# Two hours after ligating the pylori, the rats are sacrificed by prolonged anesthesia with ethyl ether and the volume of gastric juice is measured. The total acidity is determined by means of a pH meter equipped with an automatic burette. For each product and for each dose tested, the percentage of inhibition of gastric acid secretion is determined with respect to a reference batch.
smiles,measurement,setting,value
"Cc1nc(Cl)c(Cl)n1CCCCN1CCN(c2ncc(F)cn2)CC1.O=C(O)CC(O)(CC(=O)O)C(=O)O [Example 3, 2-{4-[4-(4,5-dichloro-2-methylimidazol-1-yl)butyl]piperazin-1-yl}-5-fluoropyrimidine citrate]",Number of episodes of nausea/vomiting,[1]; 0.001 mg/kg s.c.,7.4 ± 1.2 (NS)
same,Number of episodes of nausea/vomiting,[1]; 0.01 mg/kg s.c.,3.2 ± 0.6 (*)
same,Number of episodes of nausea/vomiting,[1]; 0.1 mg/kg s.c.,1.0 ± 0.2 (*)
same,Number of episodes of nausea/vomiting,[1]; 1 mg/kg s.c.,1.7 ± 0.3 (*)
same,Effect on nausea induced by copper sulfate (in words),[1]; s.c.,capable of altering the nausea induced by copper sulfate
same,Number of episodes of nausea/vomiting,[2]; 0.001 mg/kg s.c.,13.8 ± 2.4 (NS)
same,Number of episodes of nausea/vomiting,[2]; 0.01 mg/kg s.c.,6.5 ± 3.1 (*)
same,Number of episodes of nausea/vomiting,[2]; 0.1 mg/kg s.c.,3.1 ± 2.9 (*)
same,Number of episodes of nausea/vomiting,[2]; 1 mg/kg s.c.,3.0 ± 2.0 (*)
same,Effect on nausea induced by cisplatin (in words),[2]; s.c.,opposing the nausea induced by cisplatin
same,Effect on nausea caused by the movement (travel sickness) (in words),[3]; doses of 0.01 to 10 mg/kg i.p.,markedly inhibits the nausea caused by the movement (travel sickness)
same,Number of episodes of nausea/vomiting,[3]; 0.001 mg/kg i.p.,8.38 ± 1.41 (NS)
same,Number of episodes of nausea/vomiting,[3]; 0.01 mg/kg i.p.,0.33 ± 0.21 (*)
same,Number of episodes of nausea/vomiting,[3]; 0.1 mg/kg i.p.,2.17 ± 0.83 (*)
same,Number of episodes of nausea/vomiting,[3]; 1.0 mg/kg i.p.,0.33 ± 0.21 (*)
same,Number of episodes of nausea/vomiting,[3]; 10.0 mg/kg i.p.,0 ± 0 (*)
same,Ki,5HT1A serotonin receptor,19.4 nM
same,ED50,[4],9.7 mg/kg
same,ED50,gastric acid secretion,1.9 mg/kg
